Reference: paper PMC11215747, “Improved Rigidin-Inspired Antiproliferative Agents with Modifications on the 7-Deazahypoxanthine C7/C8 Ring Systems” (Journal of Medicinal Chemistry, 2024)
Entries after “also recorded” stand apart in the source; their conditions may differ. Like-named read-outs stand apart in the source and are kept apart here.

Experiments:
[1] = test system: HeLa cells; assay: Annexin V apoptosis assay and cell-fate tracking in HeLa cells; format: cell-based, Human; settings: 20 nM; for apoptosis at the 30 hour time point (Annexin V fluorescence): 6 biological replicates, one-way ANOVA amongst compounds; for total numbers of cells that died following mitotic arrest: single-cell tracking, >130 cells per treatment
Experimental: To directly assess apoptosis in living cells, HeLa cells were plated (six biological replicates per condition) in 96-well Imagelock Plates (Sartorius BA-04855) at a density of 1,562.5 cells/cm^2. The following day, cells were placed in media containing IncuCyte Annexin V Dye (Sartorius 4642) supplemented with either 0.1% Dimethyl sulfoxide or test compounds (20 nM), and plates were placed in a Sartorius Incucyte S3 live cell imaging system. Plates were scanned hourly, with phase contrast and green fluorescence images were acquired at three positions per well. Raw fluorescence data was processed using Incucyte software, and Prism Graphpad was used for data visualization and statistical analysis. To track individual cell fates, combined phase contrast/fluorescence time lapse sequences were exported from multiple wells per condition, and cell fates individual cells were scored and tabulated using Graphpad Prism software.

[2] = test system: PNT1A cells; assay: MTT cytotoxicity assay against normal epithelial cell line PNT1A; format: cell-based; settings: molecular formula strings CSV, read-out: PNT1A GI50
Experimental: (§1) The 3-(4,5-dimethylthiazol-2-yl)-2,5-diphenyltetrazolium bromide (MTT) assay was employed to evaluate the antiproliferative activities of the synthesized 7-deazahypoxathine analogues. The HeLa, PNT1A, or PANC-1 cell lines were assessed by trypsinizing and seeding 4 × 10^3 cells per well into 96-well plates. Synthesized compounds were dissolved in DMSO at a concentration of either 50 mM or 100 mM before cell treatment. Cells were grown for 24 h and then treated with compounds at concentrations ranging from 0.04 to 100 μM and incubated for 48 h in 200 μL media. Twenty microliters of MTT reagent in serum-free medium (5 mg/mL) was added to each well and incubated further for 2 h. Media was removed and the resulting formazan crystals were resolubilized in 200 μL of DMSO. A Thermomax Molecular Device plate reader was utilized to measure A490. Experiments were performed in quadruplicate and repeated at least twice for each compound. The control comprised of cells treated with 0.1% DMSO. One micromolar phenyl arsine oxide (PAO) was utilized as a positive killing control.

[3] = test system: HeLa cells; assay: Microtubule organization by immunolabeling in HeLa cells; format: cell-based, Human; settings: 4 h; for effect on interphase microtubules / effect on spindle morphology: at GI50 concentrations
Experimental: To examine microtubule morphology in rigidin-treated cells, HeLa cells were incubated for 4 h in the presence or absence of test compound before being fixed with 3.7% formaldehyde in PBS and permeabilized with 0.1% Triton X-100 in PBS. After blocking the cells with 3% bovine serum albumin in PBS, they were probed with antibodies for the centromere marker CENP-B (Abcam, code ab25734) and tubulin (Sigma, code sc-53029), which were detected with Alexa Fluor-labeled secondary antibodies (Thermofisher). Hoechst 33342 (1 mg/mL, Thermofisher H3570) was used to stain DNA. Samples were mounted on glass slides and imaged using Andor Dragonfly 505 spinning disk confocal system mounted on an Olympus IX83 inverted microscope. Figures were created with Adobe Photoshop CS5. All drugs were resuspended in DMSO, and 0.1% DMSO served as a carrier control.

[4] = test system: HeLa cells; assay: MTT antiproliferative assay against HeLa cells; format: cell-based, Human
Experimental: as §1, with “control. […]” for “control.”

[5] = biological target: T1, tubulin (Sus scrofa, UniProt P02554); assay: Fluorescence-based tubulin polymerization assay; format: biochemical; settings: relative to 1% DMSO control
T1 construct: purchased Cytoskeleton, Inc
T1 sequence (P02554 whole entry): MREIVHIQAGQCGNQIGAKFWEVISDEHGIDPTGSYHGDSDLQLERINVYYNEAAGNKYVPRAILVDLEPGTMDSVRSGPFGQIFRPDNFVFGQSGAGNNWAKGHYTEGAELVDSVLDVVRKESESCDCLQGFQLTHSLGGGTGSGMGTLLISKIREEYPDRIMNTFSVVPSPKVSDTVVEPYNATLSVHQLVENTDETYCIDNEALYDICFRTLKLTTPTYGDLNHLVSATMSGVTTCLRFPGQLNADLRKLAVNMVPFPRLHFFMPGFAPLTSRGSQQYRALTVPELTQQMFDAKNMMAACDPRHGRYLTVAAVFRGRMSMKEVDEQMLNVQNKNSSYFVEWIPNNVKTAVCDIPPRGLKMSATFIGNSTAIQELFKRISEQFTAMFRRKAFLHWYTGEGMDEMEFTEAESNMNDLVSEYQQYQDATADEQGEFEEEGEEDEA
T1 sequence (P02550 whole entry partner): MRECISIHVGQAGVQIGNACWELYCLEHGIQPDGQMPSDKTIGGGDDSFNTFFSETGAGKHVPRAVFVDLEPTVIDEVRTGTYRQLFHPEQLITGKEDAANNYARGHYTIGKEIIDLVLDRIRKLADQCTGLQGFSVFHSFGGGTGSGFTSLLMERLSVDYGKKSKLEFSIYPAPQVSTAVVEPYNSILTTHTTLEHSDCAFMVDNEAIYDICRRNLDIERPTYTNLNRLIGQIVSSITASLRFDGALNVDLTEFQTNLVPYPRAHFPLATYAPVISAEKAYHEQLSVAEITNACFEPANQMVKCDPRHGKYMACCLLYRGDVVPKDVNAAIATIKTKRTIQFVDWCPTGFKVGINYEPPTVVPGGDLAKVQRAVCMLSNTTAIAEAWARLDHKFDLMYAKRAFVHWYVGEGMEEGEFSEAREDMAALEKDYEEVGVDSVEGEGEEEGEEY
Experimental: The fluorescence-based tubulin polymerization assay from Cytoskeleton, Inc. was used. […] The tubulin reaction mixture was prepared per manufacturer’s instructions, kept on ice, and used within ∼15 min of preparation. A Biotek Synergy H4 hybrid multimode plate reader was preheated to 37 °C. Prior to starting the assay, a half-area black 96-well plate was preheated within the plate reader. A volume of 5 μL of each of the tested samples was pipetted into separate wells of the plate and incubated in the warm plate reader for 1 min.

[6] = Stability of compound in solution; format: physicochemical; settings: in solution / over time
[7] = parameters: method as in PMID 23927793; settings: cell line not given; cited from earlier work
[8] = Aqueous solubility by laser nephelometry; format: physicochemical; settings: initial analysis
[9] = 25 μM, averaged from two experiments
[10] = Homo sapiens, MTT assay, 48 h treatment, relative to DMSO control, two independent determinations, each in quadruplicate, read-out: GI50 (μM)± SD
[11] = Homo sapiens, MTT, 48 h, average and SD from two independent determinations, each in quadruplicate (footnote c), read-out: GI50 (μM) ± SD

5-(3,5-Difluorophenyl)-6-[4-(2-ethoxyethoxy)benzoyl]-2-(pent-4-yn-1-yl)-1,7-dihydro-4H-pyrrolo[2,3-d]pyrimidin-4-one [Compound 60]
apoptosis at the 30 hour time point (Annexin V fluorescence) [1]: no significant differences | total numbers of cells that died following mitotic arrest [1]: 85% | GI50 [2]: 48 ± 10 nM | effect on interphase microtubules [3]: no striking effects on interphase microtubules | effect on spindle morphology [3]: remarkable effects on the spindle morphology

6-[4-(2-Ethoxyethoxy)benzoyl]-5-(3-fluorophenyl)-2-(pent-4-yn-1-yl)-1,7-dihydro-4H-pyrrolo[2,3-d]pyrimidin-4-one [Compound 59]
GI50 ([4]; MTT, 48 h, average of eight repeats determined over 5 weeks (footnote d), read-out: GI50 (μM) ± SD): 0.016 ± 0.004 µM | apoptosis at the 30 hour time point (Annexin V fluorescence) [1]: no significant differences | total numbers of cells that died following mitotic arrest [1]: 87% | GI50 [2]: 41 ± 11 nM | effect on in vitro tubulin polymerization [5, 9]: potent inhibition of microtubule assembly; also recorded: completely suppress tubulin polymerization | effect on interphase microtubules [3]: no striking effects on interphase microtubules | effect on spindle morphology [3]: remarkable effects on the spindle morphology

6-[4-(2-Ethoxyethoxy)benzoyl]-5-(6-fluoropyridin-2-yl)-2-(pent-4-yn-1-yl)-1,7-dihydro-4H-pyrrolo[2,3-d]pyrimidin-4-one [Compound 61]
GI50 ([4]; tested once, compound degraded in solution, read-out: GI50): 0.0224 µM | stability [6]: unstable over time; also recorded: clear degradation of the compound in solution

C#CCCCc1nc(=O)c2c(-c3ccccc3C)c(C(=O)c3ccccc3)[nH]c2[nH]1 [Compound 13, 6-Benzoyl-2-(pent-4-yn-1-yl)-5-(o-tolyl)-1,7-dihydro-4H-pyrrolo[2,3-d]pyrimidin-4-one]
GI50 [4, 10]: 0.142 ± 0.044 µM

C#CCCCc1nc(=O)c2c(-c3c(C)cccc3C)c(C(=O)c3ccccc3)[nH]c2[nH]1 [Compound 14, 6-Benzoyl-5-(2,6-dimethylphenyl)-2-(pent-4-yn-1-yl)-1,7-dihydro-4H-pyrrolo[2,3-d]pyrimidin-4-one]
GI50 [4, 10]: 2.3 ± 0.09 µM

C#CCCCc1nc(=O)c2c(-c3ccc(N4CCOCC4)cc3)c(C(=O)c3ccccc3)[nH]c2[nH]1 [Compound 15, 6-Benzoyl-5-(4-morpholinophenyl)-2-(pent-4-yn-1-yl)-1,7-dihydro-4H-pyrrolo[2,3-d]pyrimidin-4-one]
decrease in antiproliferative activity compared to lead compound 1 [4]: 500 fold | GI50 [4, 10]: 11.3 ± 0.65 µM

C#CCCCc1nc(=O)c2c(-c3ccccc3)c(C(=O)c3ccccc3C)[nH]c2[nH]1 [Compound 21, 6-(2-Methylbenzoyl)-2-(pent-4-yn-1-yl)-5-phenyl-1,7-dihydro-4H-pyrrolo[2,3-d]pyrimidin-4-one]
GI50 [4, 10]: 0.062 ± 0.005 µM | GI50 ([2]; Homo sapiens, PNT1A): 53 ± 12 nM

C#CCCCc1nc(=O)c2c(-c3ccccc3)c(C(=O)c3ccc(N4CCOCC4)cc3)[nH]c2[nH]1 [Compound 27, 6-(4-Morpholinobenzoyl)-2-(pent-4-yn-1-yl)-5-phenyl-1,7-dihydro-4H-pyrrolo[2,3-d]pyrimidin-4-one]
GI50 [4, 10]: 0.025 ± 0.002 µM | GI50 ([2]; Homo sapiens, PNT1A): 49 ± 20 nM

CC#CCCc1nc(=O)c2c(-c3ccccc3)c(C(=O)c3ccc(N4CCOCC4)cc3)[nH]c2[nH]1 [Compound 30, 6-(4-Morpholinobenzoyl)-2-(pent-3-yn-1-yl)-5-phenyl-1,7-dihydro-4H-pyrrolo[2,3-d]pyrimidin-4-one]
GI50 [4, 10]: 0.043 ± 0.002 µM | reduction in activity following isomerization to the internal alkyne ([4]; terminal versus internal alkyne analogues (1, 27 vs 31, 30)): 2 fold

O=C(c1ccc(OCc2ccccc2)cc1)c1[nH]c2[nH]cnc(=O)c2c1-c1ccccc1 [Compound 32]
GI50 [7]: 45 ± 4 nM

C#CCCCc1nc(=O)c2c(-c3ccccc3)c(C(=O)c3ccc(OCCN4CCOCC4)cc3)[nH]c2[nH]1 [Compound 34, 6-[4-(2-Morpholinoethoxy)benzoyl]-2-(pent-4-yn-1-yl)-5-phenyl-1,7-dihydro-4H-pyrrolo[2,3-d]pyrimidin-4-one]
decrease in antiproliferative activity compared to lead compound 1 [4]: ~20 fold | GI50 [4, 11]: 0.444 ± 0.03 µM | aqueous solubility relative to the other compounds [8]: significantly more soluble | effect on in vitro tubulin polymerization [5, 9]: potent inhibition of microtubule assembly; also recorded: completely suppress tubulin polymerization | effect on interphase microtubules [3]: no striking effects on interphase microtubules | effect on spindle morphology [3]: remarkable effects on the spindle morphology | syntelic chromosome attachments ([3]; lower concentrations (GI25)): still prevalent

C#CCCCc1nc(=O)c2c(-c3ccccc3)c(C(=O)c3ccc(OCCN4CCCC4)cc3)[nH]c2[nH]1 [Compound 35, 2-(Pent-4-yn-1-yl)-5-phenyl-6-{4-[2-(pyrrolidin-1-yl)ethoxy]benzoyl}-1,7-dihydro-4H-pyrrolo[2,3-d]pyrimidin-4-one]
decrease in antiproliferative activity compared to lead compound 1 [4]: ~150 fold | GI50 [4, 11]: 2.87 ± 0.103 µM | aqueous solubility relative to the other compounds [8]: significantly more soluble

CC(=O)O[C@H]1C(=O)[C@@]2(C)[C@H]([C@H](OC(=O)c3ccccc3)[C@]3(O)C[C@H](OC(=O)[C@H](O)[C@@H](NC(=O)c4ccccc4)c4ccccc4)C(C)=C1C3(C)C)[C@]1(OC(C)=O)CO[C@@H]1C[C@@H]2O [Paclitaxel, paclitaxel, reference compound]
effect on in vitro tubulin polymerization ([5]; 3 μM): promotes microtubule formation | effect on in vitro tubulin polymerization ([5]; 3 μM, listed as paclitaxel): potent enhancement of microtubule formation
